Reference: article PMC8812913 (PLoS Neglected Tropical Diseases, 2022)
Read-outs that look alike come from different tables or passages of the source.

Assays:
in vivo [1] = conditions: male, Syrian golden, hamster, po, 500 mg/kg
[2] = male, Syrian golden, hamster, in vivo, po, 500 mg/kg
in vivo [3] = conditions: male, Syrian golden, hamster, po, 500 mg/kg; remark: listed apart in the source
[4] = male, Syrian golden, hamster, in vivo, po, 500 mg/kg; remark: listed apart in the source
Yellow fever virus (YFV) [5] = conditions: read-out: EC50, 50% inhibition of the virus-induced cytopathic effect (CPE); cited from earlier work
Yellow fever virus (YFV) [6] = conditions: read-out: EC90 in reducing viral yield; cited from earlier work
HCV clinical isolates = conditions: cited from earlier work
[7] = cited from earlier work
[8] = cited from earlier work; remark: listed apart in the source

Compound	MRT last (in vivo [1]; MRT0-last)	Tmax [2]	AUC(0-t) (in vivo [3])	Cmax (in vivo [3])	MRT last (in vivo [3])	Tmax (in vivo [3])	Plasma concentration at 12 h post dose (Ctrough) [4]	Tmax (in vivo [1])	Concentration measured in brain tissue [2]	further results
C[C@@]1(F)[C@H](O)[C@@H](CO)O[C@H]1n1cnc2c(=O)[nH]c(N)nc21 [AT-273]	11.6 h	8.0 h	10.8 ± 1.6 µM·h	900 ± 100 nM	9.8 ± 1.1 h	5.7 ± 4 h	600 ± 100 nM			
CNc1nc(N)nc2c1ncn2C1OC(COP(=O)(NC(C)C(=O)OC(C)C)Oc2ccccc2)C(O)C1(C)F (stereo not drawn) [AT-281]	4.2 h		1.7 ± 0.5 µM·h	600 ± 200 nM	3.4 ± 1 h	2 ± 1.7 h	6 ± 2 nM	2 h	no AT-281 was detected	Concentration measured in lung tissue [2]: no AT-281 was detected; MRT0-last [2]: 4.5 h; EC50 (Yellow fever virus (YFV) [5]): 310 nM; EC90 (Yellow fever virus (YFV) [6]): 260 nM
CNc1nc(N)nc2c1ncn2[C@@H]1O[C@H](COP(=O)(N[C@@H](C)C(=O)OC(C)C)Oc2ccccc2)[C@@H](O)[C@@]1(C)F.CNc1nc(N)nc2c1ncn2[C@@H]1O[C@H](COP(=O)(N[C@@H](C)C(=O)OC(C)C)Oc2ccccc2)[C@@H](O)[C@@]1(C)F.O=S(=O)(O)O (stereo partly drawn) [AT-527]										Fold more potent than sofosbuvir (HCV clinical isolates): up to 58 fold
CNc1nc(N)nc2c1ncn2C1OC(COP(=O)(O)NC(C)C(=O)O)C(O)C1(C)F (stereo not drawn) [AT-551]	8.5 h	2.0 h	114 ± 22.1 µM·h	52400 ± 23500 nM	4.6 ± 1.5 h	0.5 h	3400 ± 1700 nM			
CNc1nc(N)nc2c1ncn2C1OC(COP(=O)(NC(C)C(=O)OC(C)C)Oc2ccccc2)C(O)C1(C)F (stereo not drawn) [AT-752]										Half-life in primate plasma [7]: > 4.67 h; Half-life in rodent plasma [8]: < 3 min; Alive/total (21 days): 5/5; ALT (hamster, in vivo): 53 ± 5 IU/L; Toxicity, as evidenced by weight loss or mortality (hamster, in vivo, 1000 mg/kg): no toxicity
C[C@@]1(F)[C@H](O)[C@@H](COP(=O)(O)OP(=O)(O)OP(=O)(O)O)O[C@H]1n1cnc2c(=O)[nH]c(N)nc21 [AT-9010]	11 h							8 h	no AT-9010 detected	MRT last (in vivo [1]; Mean residence times (MRT0-last) across tissues): 7 to 11 h
